{"source": "patent US11135160B2", "about": "“Use of chlorogenic acid in preparing pharmaceuticals for treatment of LAG-3-mediated disease” (SICHUAN JIUZHANG BIOLOGICAL SCIENCE AND TECHNOLOGY CO. LTD, priority 2016, dated 2021)", "key": {"[1]": {"test_system": "LAG-3 gene", "test": "Expression of LAG-3 gene in JurkatE6-1 cells by RT-PCR", "format": "cell-based, human", "settings": "48 h, vs blank control group (*p<0.05)", "description": "(§1) CLL cells and JurkatE6-1 cells in exponential phase of growth with good conditions were inoculated in 6 well plate at a concentration of 5×10^5/ml. Each kind of cells were set four groups, and each group has three repeat holes for administration. Amongst, three chlorogenic acid groups received the drug dissolved in blank 1640 medium (1 mL) at the desired concentration, while the blank control group received the same volume of blank 1640 medium.\n(§2) Using RNA prep Pure cultured cell/bacteria total RNA extraction kit (centrifugal column), total RNA was extracted from cells, and the operative procedures were carried out as the instructions. The detailed extraction procedures are briefly described as follows:\n(§3) Using cDNA first strand synthesis kit and the resultant RNA solution by above extraction, the corresponding first strand cDNA was synthesized. The detailed reverse transcription procedures were carried out according to the instructions, that is briefly described as follows:\n(§4) Because EvaGreen fluorescent dye can produce strong fluorescence when binding with the double-stranded DNA, the total amount of DNA formed by reaction can be obtained by detecting the final fluorescence intensity. To the test tube, were added fluorescent dye, cDNA product synthesized in steps (1) and (2), LAG-3 primer (Forward primer SEQ ID NO: 1 5′-[…]-3′, downstream primer SEQ ID NO: 2 5′-[…]-3′), and well mixed, then subjected to RT-PCR measurement. Amongst, […] group was set for each sample for calculating the relative magnitude, to perform the relative quantitation."}, "[2]": {"test_system": "LAG-3", "test": "Content of LAG-3 in CLL cells, ELISA with human lymphocyte activation gene 3 detection kit", "format": "cell-based", "settings": "48 h", "description": "(§5) CLL cells and JurkatE6-1 cells in exponential phase of growth with good conditions were inoculated in 6 well plate at a concentration of 5×10^5/ml. Each kind of cells were set four groups, and each group has three repeat holes for administration. Amongst, three chlorogenic acid groups received the drug dissolved in blank 1640 medium (1 mL) at the desired concentration, while the blank control group received the same volume of blank 1640 medium. [table] In this example, by ELISA experiment, the activity of LAG-3 in cells of each group was determined using human lymphocyte activation gene 3 detection kit. After cells of each group acted with corresponding drugs for 48 h, cell culture fluid of each group was collected and divided into two parts. The protein of one part was quantitated using BCA method, and the activity of LAG-3 in cells of each group was determined using human lymphocyte activation gene 3 detection kit, to calculate the content of LAG-3 in each group."}, "[3]": {"test_system": "LAG-3 gene", "test": "Expression of LAG-3 gene in CLL cells by RT-PCR", "format": "cell-based, human", "settings": "48 h, vs blank control group (*p<0.05)", "description": "as §1, §2, §3, §4"}, "[4]": {"test_system": "LAG-3 protein", "test": "Immunohistochemistry of LAG-3 protein expression in in situ lesion of GL261 glioma mice", "format": "in vivo, C57BL/6 mice", "settings": "7 days, chlorogenic acid 40 mg/kg intraperitoneal, temozolomide 20 mg/kg oral, saline control 69%", "description": "GL261 glioma cells in exponential phase of growth were prepared as GL261 single cell suspension at a concentration of 5×10^5/μL. After anesthetized with 0.75% pentobarbital sodium at 6 μL/g, the hair at the puncture site was stripped, and the heads of mice were fixed with ALC-H mouse brain stereotactic apparatus for longitudinal incision of scalp. […] GL261 single cell suspension was injected using micro pump at 2.5 μL/min, and the pinpoint was sealed with bone wax, then the incision of scalp was carefully sutured. Totally, 35 mice were inoculated, and the remained 5 mice were normal. The dead mice were removed, and C57BL/6 mice inoculated with GL261 glioma cells were randomly divided to 3 groups, including the saline control group (NC group), chlorogenic acid injection group (CA group), and temozolomide (TMZ) positive control group. Amongst, CA group is intraperitoneally injected with 40 mg/kg chlorogenic acid everyday, NC group is injected with the same volume of saline, and TMZ treatment group orally takes 20 mg/kg temozolomide. […]\nAfter completion of experiment, in situ lesion of each group mice was cut, while the brain tissue of 5 remained normal mice mentioned in step 2.2 was cut. […] The immunohistochemical results were analyzed by semiquantitative method, and finally, the expression rate of LAG-3 protein in different tissue sample was subjected to statistical analysis."}, "[5]": {"test_system": "LAG-3", "test": "Content of LAG-3 in JurkatE6-1 cells, ELISA with human lymphocyte activation gene 3 detection kit", "format": "cell-based", "settings": "48 h", "description": "as §5"}, "[6]": {"test_system": "CD3+T lymphocytes and CD4+T lymphocytes", "test": "T cell proliferation in peripheral blood of GL261 glioma mice", "format": "in vivo, C57BL/6 mice", "settings": "40 mg/kg intraperitoneal, 7 days, vs saline control group", "description": "GL261 glioma cells in exponential phase of growth were prepared as GL261 single cell suspension at a concentration of 5×10^5/μL. After anesthetized with 0.75% pentobarbital sodium at 6 μL/g, the hair at the puncture site was stripped, and the heads of mice were fixed with ALC-H mouse brain stereotactic apparatus for longitudinal incision of scalp. […] GL261 single cell suspension was injected using micro pump at 2.5 μL/min, and the pinpoint was sealed with bone wax, then the incision of scalp was carefully sutured. Totally, 35 mice were inoculated, and the remained 5 mice were normal. The dead mice were removed, and C57BL/6 mice inoculated with GL261 glioma cells were randomly divided to 3 groups, including the saline control group (NC group), chlorogenic acid injection group (CA group), and temozolomide (TMZ) positive control group. Amongst, CA group is intraperitoneally injected with 40 mg/kg chlorogenic acid everyday, NC group is injected with the same volume of saline, and TMZ treatment group orally takes 20 mg/kg temozolomide. [table] […] Detecting the proliferation status of T lymphocytes may reflect the strong/weak inhibitory action of LAG-3. […]"}, "[7]": {"settings": "high dose 100 μM, vs blank control group (*p<0.05)"}, "[8]": {"settings": "middle dose 50 μM, vs blank control group (*p<0.05)"}}}
{"smiles": "O=C(/C=C/c1ccc(O)c(O)c1)O[C@@H]1C[C@](O)(C(=O)O)C[C@@H](O)[C@H]1O", "note": "[chlorogenic acid, 3-o-caffeoylquinic acid]", "values": [{"measurement": "expression level of LAG-3 gene", "setting": "[1]; high dose 100 μM", "value": "obviously reduced"}, {"measurement": "expression level of LAG-3 gene", "setting": "[1]; low dose 10 μM", "value": "obviously reduced"}, {"measurement": "expression level of LAG-3 gene", "setting": "[1]; middle dose 50 μM", "value": "obviously reduced"}, {"measurement": "content of LAG-3", "setting": "[2]; [7]", "value": "obviously different"}, {"measurement": "content of LAG-3", "setting": "[2]; low dose 10 μM", "value": "lowered"}, {"measurement": "content of LAG-3", "setting": "[2]; [8]", "value": "obviously different"}, {"measurement": "expression level of LAG-3 gene", "setting": "[3]; high dose 100 μM", "value": "obviously different"}, {"measurement": "expression level of LAG-3 gene", "setting": "[3]; low dose 10 μM", "value": "obviously different"}, {"measurement": "expression level of LAG-3 gene", "setting": "[3]; middle dose 50 μM", "value": "obviously different"}, {"measurement": "average percentage of LAG-3 protein high expression", "setting": "[4]", "value": 23.78, "unit": "%"}, {"measurement": "content of LAG-3", "setting": "[5]; [7]", "value": "obviously different"}, {"measurement": "content of LAG-3", "setting": "[5]; low dose 10 μM", "value": "lowered"}, {"measurement": "content of LAG-3", "setting": "[5]; [8]", "value": "obviously different"}, {"measurement": "percentage of CD3+T lymphocytes in peripheral blood lymphocytes", "setting": "[6]", "value": "obviously promote the proliferation"}, {"measurement": "percentage of CD4+T lymphocytes in peripheral blood lymphocytes", "setting": "[6]", "value": "obviously promote the proliferation"}]}
{"smiles": "Cn1nnc2c(C(N)=O)ncn2c1=O", "note": "[temozolomide, reference compound]", "values": [{"measurement": "average percentage of LAG-3 protein high expression", "setting": "[4]", "value": 44.83, "unit": "%"}]}
